In patent publication US20020132225A1, “Compositions and methods for prolonging survival of chilled platelets” (priority 2000, published 2002):

Legend:
stimulated THP-1 cells = assay: In vitro phagocytic assay: phagocytosis of chilled platelets by THP-1 cells (FACS); format: cell-based, human; conditions: for inhibition of phagocytosis of platelets by phagocytic cells: up to 200 mM
From the text: As a first step toward evaluation of this strategy, we have developed an in vitro phagocytic assay to study the interaction between chilled platelets and mononuclear phagocytes. […] These measurements can be made with a fluorescence-activated cell sorter (FACS). […] None of these sugars had any effect on platelet aggregation induced by thrombin or by ristocetin. The latter result is particularly important, because it reflects platelet hemostatic function mediated by GPIb interaction with von Willebrand factor.
In these experiments (FIG. 11, 12, and 13) platelets were loaded with fluorescent dye CM-Orange, then incubated for 1 h at 22° C. (control), 4° C. (chilled) or exposed to UV (UV). Phagocytosis was quantified by measuring the incorporation of CM-orange-fluorescence (CM-Orange labeled platelets) into monocyte-sized cells. Bound versus ingested platelets were separated by labeling the cells after the phagocytic period with FITC-labeled anti-integrin-β3 (CD 61) antibodies, e.g., bound platelets will be FITC positive, ingested platelets will be negative. The uptake of control versus chilled platelets was compared. Chilled platelets are phagocytized because they fail to label with FITC-conjugated anti-β3 antibodies (CM-Orange positive), whereas control platelets are poorly ingested although some platelets are bound to the monocyte surface. From this experiment, the ratio of 22° C. to 4° C. ingested platelets (CM-Orange positive) can be calculated. […] These findings indicate that the cold platelet clearance differs from UV-induced clearance.

OG-permeant platelets = assay: Actin filament barbed end exposure in chilled OG-permeabilized platelets; format: cell-based, human; conditions: OG-permeant platelets cooled
Description: We studied the biochemical and structural basis for the cold-induced shape transformation in human platelets and found it to require net actin assembly. To understand the signals involved in this process, we applied a permeabilization scheme to the cooling process that we have used to dissect PAR-1 mediated actin assembly. In this approach, platelets are first permeabilized with 0.25% octylglucoside (OG), then chilled to 4° C. for 5 min and rewarmed to 37° C. Resting platelets remained discoid at 37° C. after permeabilization with OG but changed shape when chilled. Chilled OG-permeant platelets have blebs on their surfaces and elaborate filopodial processes. […] Rewarming is required to assay filament end numbers, because we discovered that OG-treated platelets reseal in the cold, but become permeable again when rewarmed. We assayed the number of actin filament barbed ends biochemically by monitoring the acceleration of pyrene-actin polymerization rates fluorometrically in the presence and absence of CB (Hartwig, J. et al., Cell 82:643-653).

Molecule | inhibition of phagocytosis of platelets by phagocytic cells (stimulated THP-1 cells) | effect on barbed ends exposed upon cooling (OG-permeant platelets) | other results
O=C[C@H](O)[C@@H](O)[C@@H](O)[C@H](O)CO [D-galactose] | not | – | –
O=C[C@H](O)[C@@H](O)[C@H](O)[C@H](O)CO [D-glucose] | not | – | –
Nc1nc2c(ncn2[C@@H]2O[C@H](COP(=O)(O)OP(O)(O)=S)[C@@H](O)[C@H]2O)c(=O)[nH]1 [GDPβS] | – | no effect | –
Nc1nc2c(ncn2[C@@H]2O[C@H](COP(=O)(O)OP(=O)(O)OP(O)(O)=S)[C@@H](O)[C@H]2O)c(=O)[nH]1 [GTPγS] | – | no effect | –
CC(=O)N[C@H]1C(O)O[C@H](CO)[C@@H](O)[C@@H]1O (stereo partly drawn) [N-acetyl-D-glucosamine] | not | – | –
COC1OC(CO)C(O)C(O)C1O [α-methyl-D-glycoside] | – | – | inhibition of CM-Orange pellet phagocytosis by stimulated THP-1 cells (stimulated THP-1 cells; FIG. 11-13): concentration dependent inhibition
N17cdc42: negative dominant form of cdc42 GTPase | – | failed to inhibit | –
